This note sets out measurements from ChEMBL document CHEMBL1146401, “A bioactive seco-rosane diterpenoid from Vellozia candida” (1997).

For test [1], the system named is Saccharomyces cerevisiae. Put plainly: DNA damaging activity against DNA repair-deficient Saccharomyces cerevisiae RS 322YK (rad 52Y) mutant assessed as drug level required to produce 12 mm zone of inhibition after 48 hrs. It is filed as functional.
For test [2], the system named is Saccharomyces cerevisiae. The test is described as follows: DNA damaging activity against DNA […] Saccharomyces cerevisiae RS 188N (RAD+) mutant assessed as drug level required to produce 12 mm zone of inhibition after 48 hrs. The class given is functional.

Consider `C=C[C@@]1(C)C[C@@H]2OC(=O)C3=C(CCCC3(C)C)[C@@]2(C)[C@H](C(=O)O)C1` [CANDIDALACTONE], for which the figures for the Activity in the test with Saccharomyces cerevisiae [1] and with Saccharomyces cerevisiae [2] were 87 µg/mL and greater than 200 µg/mL, respectively.
